Laboratory results reported in patent US20070037205A1, “Methods and apparatus for cell based screening” (priority 2001, published 2007).

Tested on: HT-29 cells
Experiment: HT-29 cytotoxicity assay (resazurin), with or without IFN-γ pretreatment
Format: cell-based, human
Conditions: IFN-γ treatment alone (data not shown)
Description: HT-29 cells (ATCC HTB-38) were cultured in McCoy's 5a Medium with 25 mM HEPES and supplemented with 10% fetal calf serum, 1× nonessential amino acids, 2 mM L-glutamine, 1 mM sodium pyruvate, 100 U/ml penicillin/100 ug/ml streptomycin (complete medium) at 37° C. in a humidified 5% CO2 cabinet. The cellular monolayer was washed with PBS and adherent cells were removed by treatment with 0.25% typsin/0.05% EDTA. The cells were collected by centrifugation and resuspended in complete medium. Cell number and viability was determined by Trypan Blue exclusion staining.
Duplicate plates of HT-29 cells were prepared by seeding cells into clear bottom, black walled 96 well tissue culture treated microplates (Corning 3904) at 5000 cells/well in a volume of 150 μl per well. […] Reduction of resazurin due to metabolic activity causes the dye to change from a non-fluorescent to fluorescent product that can be measured at 530 nm excitation and 590 nm emission wavelengths. Relative Fluorescent Units (RFU) was measured in a Fluoroskan Ascent microplate fluorometer (Thermo/Labsystems) in a bottom-read mode with excitation at 530 nm and emission at 590 nm. […]
Extracts that scored positive in the primary screen were evaluated for tumor cell death in a dose-dependent cytotoxicity assay. […] Inhibition of cellular growth was determined using resazurin indicator dye as described above. […]

IFN-γ: recombinant human IFN-γ (R & D Systems), sensitizing agent
growth inhibitory effect on HT-29 cells: no growth inhibitory effect
